# Data taken from patent US20250320213A1, “Nitrogen-Containing Heterocyclic Compounds” (Pfizer Inc., priority 2024, published 2025).
# Assays:
# STAT6 = molecular target: T1, STAT6 (Homo sapiens, UniProt P42226); test: STAT6 Reporter Luciferase Assay (IL-13 stimulated HaCaT keratinocyte NanoLuc reporter cells); assay type: cell-based; settings: IL-13 stimulated HaCaT STAT6 NanoLuc reporter cells; read-out: Reporter EC50
# T1 construct: stably transfected HaCaT keratinocyte cell line, which expresses NanoLuc luciferase reporter gene under the transcriptional control of the STAT6 responsive promoter; endogenous in cells; host or cells: HaCaT keratinocyte reporter cell line (stably transfected with a NanoLuc reporter)
# T1 sequence (P42226 1-847): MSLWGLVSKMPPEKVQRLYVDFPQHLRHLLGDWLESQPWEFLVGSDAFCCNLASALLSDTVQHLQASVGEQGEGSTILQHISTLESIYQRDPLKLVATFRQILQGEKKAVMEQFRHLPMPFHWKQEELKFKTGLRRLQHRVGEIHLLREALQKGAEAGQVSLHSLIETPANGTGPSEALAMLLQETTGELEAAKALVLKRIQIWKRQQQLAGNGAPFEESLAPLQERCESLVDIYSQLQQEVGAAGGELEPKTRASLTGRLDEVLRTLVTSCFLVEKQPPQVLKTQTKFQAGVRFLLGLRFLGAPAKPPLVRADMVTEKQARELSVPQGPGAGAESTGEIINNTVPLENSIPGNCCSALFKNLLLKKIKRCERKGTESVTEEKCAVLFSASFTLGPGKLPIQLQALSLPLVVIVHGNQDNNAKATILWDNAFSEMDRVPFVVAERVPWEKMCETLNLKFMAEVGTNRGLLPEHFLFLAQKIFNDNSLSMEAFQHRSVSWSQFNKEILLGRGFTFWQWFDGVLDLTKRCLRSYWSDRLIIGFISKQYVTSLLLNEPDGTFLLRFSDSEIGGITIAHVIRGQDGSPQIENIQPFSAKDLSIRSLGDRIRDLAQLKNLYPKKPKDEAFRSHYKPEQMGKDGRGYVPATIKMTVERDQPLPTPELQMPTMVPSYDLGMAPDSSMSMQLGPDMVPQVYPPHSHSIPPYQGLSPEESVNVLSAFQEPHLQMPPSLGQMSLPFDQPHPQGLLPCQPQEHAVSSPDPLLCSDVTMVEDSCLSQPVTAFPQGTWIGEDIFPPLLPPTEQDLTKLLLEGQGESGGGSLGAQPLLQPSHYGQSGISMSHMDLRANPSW
# Outline: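 HaCaT cells stably carrying a NanoLuc reporter driven by the STAT6-responsive IL-13Ra2 promoter were preincubated with compounds for 2 h at 37 °C in 2% FBS medium. Cells were then stimulated with 0.12 nM IL-13 for 4 h, and luminescence was read after Nano-Glo substrate. Compounds ran as 11-point 4-fold dilutions in duplicate.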
# [1] = system: CCL17 secretion in peripheral human whole blood; test: Human Whole Blood (HWB) CCL17 TR-FRET Assay (IL-13 stimulated CCL17 secretion); assay type: cell-based; settings: human whole blood
# Outline: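 Heparin-anticoagulated human blood; cpd 11-pt 3-fold dilution, duplicate, 2 h 37 °C preinc; IL-13 10 ng/mL final, 48 h 37 °C; spin, serum CCL17 by TR-FRET ELISA, 16 h RT, 665/615 ratio; IC50.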
# [2] = Homo sapiens, 48 h, IL-13 stimulated
Structure (SMILES),EC50 (STAT6),"IC50 ([1]; IL-13 stimulated, 48 hours)","IC50 [1, 2]","IC50 ([1]; 10 ng/mL IL13, 48 hours)","IC50 ([1]; Homo sapiens, 48 h, 10 ng/mL IL13, 48 hours)"
"CC(C)n1nc(C(=O)NCc2ccc(NC(=O)N(C)C)cc2)c2c1C(C(F)(F)F)CN(c1ncc(C(=O)N(C)C)cn1)C2 (single isomer, unassigned) [Example 462, rel-(R or S)-5-(5-(dimethylcarbamoyl)pyrimidin-2-yl)-N-(4-(3,3-dimethylureido)benzyl)-1-isopropyl-7-(trifluoromethyl)-4,5,6,7-tetrahydro-1H-pyrazolo[4,3-c]pyridine-3-carboxamide]",38.7 nM,376 nM,,,
"CCn1nc(C(=O)NCc2ccc(NC(=O)N(C)C)cc2)c2c1C(C(F)(F)F)CN(c1ncc(C(=O)N(C)C)cn1)C2 (single isomer, unassigned) [Example 464, rel-(R or S)-5-(5-(dimethylcarbamoyl)pyrimidin-2-yl)-N-(4-(3,3-dimethylureido)benzyl)-1-ethyl-7-(trifluoromethyl)-4,5,6,7-tetrahydro-1H-pyrazolo[4,3-c]pyridine-3-carboxamide]",0.2 nM,2 nM,,,
"CCn1nc(C(=O)NCc2ccc(NC(=O)N(C)C)cc2)c2c1C(C(F)(F)F)CN(c1ncc(C(=O)N(C)C)cn1)C2 (single isomer, unassigned) [Example 465, rel-(R or S)-5-(5-(dimethylcarbamoyl)pyrimidin-2-yl)-N-(4-(3,3-dimethylureido)benzyl)-1-ethyl-7-(trifluoromethyl)-4,5,6,7-tetrahydro-1H-pyrazolo[4,3-c]pyridine-3-carboxamide]",51.8 nM,682 nM,,,
"CCn1nc(C(=O)NCc2ccc(C(=O)NC)cc2)c2c1C(C(F)(F)F)CN(c1ccc(C(=O)N(C)C)cn1)C2 (single isomer, unassigned) [Example 467, rel-(R or S)-5-(5-(dimethylcarbamoyl)pyridin-2-yl)-1-ethyl-N-(4-(methylcarbamoyl)benzyl)-7-(trifluoromethyl)-4,5,6,7-tetrahydro-1H-pyrazolo[4,3-c]pyridine-3-carboxamide]",315 nM,2500 nM,,,
"CCn1nc(C(=O)NCc2ccc(C(=O)NC)cc2)c2c1C(C(F)(F)F)CN(c1ccc(C(=O)N(C)C)cn1)C2 (single isomer, unassigned) [Example 468, rel-(R or S)-5-(5-(dimethylcarbamoyl)pyridin-2-yl)-1-ethyl-N-(4-(methylcarbamoyl)benzyl)-7-(trifluoromethyl)-4,5,6,7-tetrahydro-1H-pyrazolo[4,3-c]pyridine-3-carboxamide]",2.2 nM,12 nM,,,
"CC(C)n1nc(C(=O)NCc2ccc(NC(=O)N(C)C)cc2)c2c1C(O)CN(c1ccc(C(=O)N(C)C)cn1)C2 (single isomer, unassigned) [Example 474, rel-(R or S)-5-(5-(dimethylcarbamoyl)pyridin-2-yl)-N-(4-(3,3-dimethylureido)benzyl)-7-hydroxy-1-isopropyl-4,5,6,7-tetrahydro-1H-pyrazolo[4,3-c]pyridine-3-carboxamide]",40 nM,85 nM,,,
"CC(C)n1nc(C(=O)NCc2ccc(NC(=O)N(C)C)cc2)c2c1C(O)CN(c1ccc(C(=O)N(C)C)cn1)C2 (single isomer, unassigned) [Example 475, rel-(R or S)-5-(5-(dimethylcarbamoyl)pyridin-2-yl)-N-(4-(3,3-dimethylureido)benzyl)-7-hydroxy-1-isopropyl-4,5,6,7-tetrahydro-1H-pyrazolo[4,3-c]pyridine-3-carboxamide]",72 nM,215 nM,,,
"CC(C)n1nc(C(=O)NCc2ccc(NC(=O)N(C)C)cc2)c2c1C(C(F)F)CN(c1ccc(C(=O)N(C)C)cn1)C2 (single isomer, unassigned) [Example 493, rel-(R or S)-7-(difluoromethyl)-5-(5-(dimethylcarbamoyl)pyridin-2-yl)-N-(4-(3,3-dimethylureido)benzyl)-1-isopropyl-4,5,6,7-tetrahydro-1H-pyrazolo[4,3-c]pyridine-3-carboxamide]",28 nM,203 nM,,,
"CC(C)n1nc(C(=O)NCc2ccc(NC(=O)N(C)C)cc2)c2c1C(C(F)F)CN(c1ccc(C(=O)N(C)C)cn1)C2 (single isomer, unassigned) [Example 494, rel-(R or S)-7-(difluoromethyl)-5-(5-(dimethylcarbamoyl)pyridin-2-yl)-N-(4-(3,3-dimethylureido)benzyl)-1-isopropyl-4,5,6,7-tetrahydro-1H-pyrazolo[4,3-c]pyridine-3-carboxamide]",0.5 nM,4 nM,,,
"CC(C)n1nc(C(=O)NCc2ccc(NC(=O)N(C)C)cc2)c2c1CCN(c1ccc(C(=O)N(C)C)cn1)[C@@H]2C (single isomer, unassigned) [Example 506]",2 nM,,14 nM,,
"CC(C)n1nc(C(=O)NCc2ccc(NC(=O)N(C)C)cc2)c2c1CCN(c1ccc(C(=O)N(C)C)cn1)[C@H]2C (single isomer, unassigned) [Example 507]",136 nM,,1650 nM,,
"CC(C)n1nc(C(=O)NCc2ccc(NC(=O)N(C)C)cc2)c2c1CCN(c1ncc(C(=O)N(C)C)cn1)[C@@H]2C (single isomer, unassigned) [Example 508]",7 nM,,20 nM,,
"CC(C)n1nc(C(=O)NCc2ccc(NC(=O)N(C)C)cc2)c2c1CCN(c1ncc(C(=O)N(C)C)cn1)[C@H]2C (single isomer, unassigned) [Example 509]",3320 nM,,8170 nM,,
"CCn1nc(C(=O)NCc2ccc(NC(=O)N(C)C)cc2)c2c1CCN(c1ncc(C(=O)N(C)C)cn1)[C@H]2C (single isomer, unassigned) [Example 510]",1520 nM,,8830 nM,,

# Second part, the compound after the results:
EC50 (STAT6),"IC50 ([1]; IL-13 stimulated, 48 hours)","IC50 [1, 2]","IC50 ([1]; 10 ng/mL IL13, 48 hours)","IC50 ([1]; Homo sapiens, 48 h, 10 ng/mL IL13, 48 hours)",Structure (SMILES)
6 nM,,29 nM,,,"CCn1nc(C(=O)NCc2ccc(NC(=O)N(C)C)cc2)c2c1CCN(c1ncc(C(=O)N(C)C)cn1)[C@@H]2C (single isomer, unassigned) [Example 511]"
1 nM,,6 nM,,,"CNC(=O)Nc1ccc(CNC(=O)c2nn(C(C)C)c3c2CN(c2ncc(-c4nccn4C)cn2)C[C@@H]3C)cc1 (single isomer, unassigned) [Example 515]"
8870 nM,,,> 25100 nM,,"CC[C@H]1c2c(C(=O)NCc3ccc(NC(=O)N(C)C)cc3)nn(C(C)C)c2CCN1c1ccc(C(=O)N(C)C)cn1 (single isomer, unassigned) [Example 527]"
17 nM,,,67 nM,,"CC[C@H]1c2c(C(=O)NCc3ccc(NC(=O)N(C)C)cc3)nn(C(C)C)c2CCN1c1ccc(C(=O)N(C)C)cn1 (single isomer, unassigned) [Example 528]"
0.1 nM,,,,4 nM,"CC(C)n1nc(C(=O)NCc2ccc(NC(=O)N(C)C)cc2)c2c1[C@@H](C)CN(c1ccc(C(=O)N(C)C)cn1)[C@@H]2C (single isomer, unassigned) [Example 529]"
0.2 nM,,,5 nM,,"CC(C)c1nc(C(=O)NCc2ccc(NC(=O)N(C)C)cc2)c2n1C(C)CN(c1ccc(C(=O)N(C)C)cc1)C2 (single isomer, unassigned) [Example 538, rel-(R or S)-7-(4-(Dimethylcarbamoyl)phenyl)-N-(4-(3,3-dimethylureido)benzyl)-3-isopropyl-5-methyl-5,6,7,8-tetrahydroimidazo[1,5-a]pyrazine-1-carboxamide]"
13 nM,,,72 nM,,"CC(C)c1nc(C(=O)NCc2ccc(NC(=O)N(C)C)cc2)c2n1C(C)CN(c1ccc(C(=O)N(C)C)cc1)C2 (single isomer, unassigned) [Example 539, rel-(R or S)-7-(4-(Dimethylcarbamoyl)phenyl)-N-(4-(3,3-dimethylureido)benzyl)-3-isopropyl-5-methyl-5,6,7,8-tetrahydroimidazo[1,5-a]pyrazine-1-carboxamide]"
0.2 nM,,,3 nM,,"CC(C)n1nc(C(=O)NCc2ccc(NC(=O)N(C)C)cc2)c2c1C(C(F)(F)F)CN(c1ccc(C(=O)N(C)C)cn1)C2 (single isomer, unassigned) [Example 547, rel-(R or S)-5-(5-(Dimethylcarbamoyl)pyridin-2-yl)-N-(4-(3,3-dimethylureido)benzyl)-1-isopropyl-7-(trifluoromethyl)-4,5,6,7-tetrahydro-1H-pyrazolo[4,3-c]pyridine-3-carboxamide]"
